Patent publication US7192906B2, “Substituted pyrazole derivatives, production process thereof, and herbicide compositions containing the derivatives” (SDS Biotech K.K., priority 2001, dated 2007)

Experiments:
Format in all cases: in vivo
Rice (Oryza sativa) = experiment: Test Example 3 paddy field treatment, crop phytotoxicity; conditions: paddy field treatment, transplanted rice Koshihikari, wettable powder, active ingredient 1 kg per hectare, 21st day after the dropping, index 0-5
In short: (§1)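 Weed seeds sown in puddled paddy soil under 4 cm water, with two-leaf Koshihikari rice transplanted; 10 days later a wettable powder was applied to the water surface at 1 kg active ingredient/ha. Scored 21 days after application on a 0–5 scale (0 = <10%, 5 = ≥90% herbicidal effect or phytotoxicity).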

Digitaria adscendens [1] = experiment: Test Example 1 upland field foliage treatment; conditions: Table 4, upland field foliage treatment, index 0-5
In short: (§2)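 Post-emergence foliar spray of water-diluted wettable powder at 1 kg active ingredient per hectare, applied 14 days after sowing in upland soil. Weed control or crop phytotoxicity rated 21 days later on a 0–5 scale (5: ≥90%, 0: <10%).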

Chenopodium album [2] = experiment: Test Example 1 upland field foliage treatment; conditions: Table 4, upland field foliage treatment, index 0-5
In short: as §2

Setaria viridis [3] = experiment: Test Example 1 upland field foliage treatment; conditions: Table 4, upland field foliage treatment, index 0-5
In short: as §2

Stellaria media [4] = experiment: Test Example 1 upland field foliage treatment; conditions: Table 4, upland field foliage treatment, index 0-5
In short: as §2

soybean (Glycine max) [5] = experiment: Test Example 1 upland field foliage treatment, crop phytotoxicity; conditions: Table 4, upland field foliage treatment, index 0-5
In short: as §2

[6] = system: wheat (Triticum aestivum); experiment: as above; conditions: Table 4, upland field foliage treatment, index 0-5
In short: as §2

Echinochloa crusgalli = experiment: Test Example 3 paddy field treatment; conditions: paddy field treatment, wettable powder, active ingredient 1 kg per hectare, 21st day after the dropping, index 0-5
In short: as §1

Scirpus juncoides = experiment: Test Example 3 paddy field treatment; conditions: paddy field treatment, wettable powder, active ingredient 1 kg per hectare, 21st day after the dropping, index 0-5
In short: as §1

Ammannia multiflora = experiment: Test Example 3 paddy field treatment; conditions: paddy field treatment, wettable powder, active ingredient 1 kg per hectare, 21st day after the dropping, index 0-5
In short: as §1

Monochoria vaginalis = experiment: Test Example 3 paddy field treatment; conditions: paddy field treatment, wettable powder, active ingredient 1 kg per hectare, 21st day after the dropping, index 0-5
In short: as §1

soybean (Glycine max) [7] = experiment: Test Example 2 upland soil treatment, crop phytotoxicity; conditions: Table 5, upland soil treatment, index 0-5
In short: (§3)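 Pre-emergence soil application the day after sowing, active ingredient at 1 kg per hectare as diluted wettable powder, seeds covered with about 1 cm soil. Assessed 21 days after application on a 0–5 scale (5 = ≥90% herbicidal effect or phytotoxicity; 0 = <10%).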

[8] = system: wheat (Triticum aestivum); experiment: as above; conditions: Table 5, upland soil treatment, index 0-5
In short: as §3

Digitaria adscendens [9] = experiment: Test Example 2 upland soil treatment; conditions: Table 5, upland soil treatment, index 0-5
In short: as §3

Chenopodium album [10] = experiment: Test Example 2 upland soil treatment; conditions: Table 5, upland soil treatment, index 0-5
In short: as §3

Setaria viridis [11] = experiment: Test Example 2 upland soil treatment; conditions: Table 5, upland soil treatment, index 0-5
In short: as §3

Stellaria media [12] = experiment: Test Example 2 upland soil treatment; conditions: Table 5, upland soil treatment, index 0-5
In short: as §3

With CON=C(Cn1cc(C)c(-c2ccc(Cl)cc2)n1)C(N)=O [Compound 17] the “Herbicidal activity OS (phytotoxicity to rice)” value (Rice (Oryza sativa)) was 0 (herbicidal effect of not less than 0% and less than 10%, or phytotoxicity of 0% or more and less than 10%), the “Herbicidal activity DA: Digitaria adscendens” value (Digitaria adscendens [1]) was 5 (herbicidal effect of not less than 90%, or phytotoxicity of 90% or more) and the “Herbicidal activity CA: Chenopodium album” value (Chenopodium album [2]) was 5 (herbicidal effect of not less than 90%, or phytotoxicity of 90% or more). For the same compound, the “Herbicidal activity SV: Setaria viridis” value (Setaria viridis [3]) was 5 (herbicidal effect of not less than 90%, or phytotoxicity of 90% or more), the “Herbicidal activity SM: Stellaria media” value (Stellaria media [4]) was 5 (herbicidal effect of not less than 90%, or phytotoxicity of 90% or more) and the “Herbicidal activity (phytotoxicity) GM: Soybean (Glycine max)” value (soybean (Glycine max) [5]) was 0 (herbicidal effect of not less than 0% and less than 10%, or phytotoxicity of 0% or more and less than 10%). The “Herbicidal activity (phytotoxicity) TA: Wheat (Triticum aestivum)” value [6] was 0 (herbicidal effect of not less than 0% and less than 10%, or phytotoxicity of 0% or more and less than 10%), the “Herbicidal activity EC” value (Echinochloa crusgalli) was 4 (herbicidal effect of not less than 70% and less than 90%, or phytotoxicity of 70% or more and less than 90%) and the “Herbicidal activity SJ” value (Scirpus juncoides) was 4 (herbicidal effect of not less than 70% and less than 90%, or phytotoxicity of 70% or more and less than 90%). The “Herbicidal activity AM” value (Ammannia multiflora) was 5 (herbicidal effect of not less than 90%, or phytotoxicity of 90% or more), the “Herbicidal activity MV” value (Monochoria vaginalis) was 5 (herbicidal effect of not less than 90%, or phytotoxicity of 90% or more) and the “Herbicidal activity (phytotoxicity) GM: Soybean (Glycine max)” value (soybean (Glycine max) [7]) was 0 (herbicidal effect of not less than 0% and less than 10%, or phytotoxicity of 0% or more and less than 10%). The “Herbicidal activity (phytotoxicity) TA: Wheat (Triticum aestivum)” value [8] was 0 (herbicidal effect of not less than 0% and less than 10%, or phytotoxicity of 0% or more and less than 10%), the “Herbicidal activity DA: Digitaria adscendens” value (Digitaria adscendens [9]) was 4 (herbicidal effect of not less than 70% and less than 90%, or phytotoxicity of 70% or more and less than 90%) and the “Herbicidal activity CA: Chenopodium album” value (Chenopodium album [10]) was 4 (herbicidal effect of not less than 70% and less than 90%, or phytotoxicity of 70% or more and less than 90%). The “Herbicidal activity SV: Setaria viridis” value (Setaria viridis [11]) was 4 (herbicidal effect of not less than 70% and less than 90%, or phytotoxicity of 70% or more and less than 90%) and the “Herbicidal activity SM: Stellaria media” value (Stellaria media [12]) was 4 (herbicidal effect of not less than 70% and less than 90%, or phytotoxicity of 70% or more and less than 90%).
